Measurements from ChEMBL document CHEMBL1147101, “Development and persistence of antimicrobial resistance in Pseudomonas aeruginosa: a longitudinal observation in mechanically ventilated patients” (Antimicrob Agents Chemother, 2007).
Active and inactive are the calls of the source. The calls are words filed in the database; no cut-off is given here.

Tests used:
Format in all cases: functional, organism-based
Conditions in all cases: Trachea
Pseudomonas aeruginosa [1] = experiment: Antimicrobial activity against Pseudomonas aeruginosa 65.38-3 tracheal isolates from mechanically ventilated tuberculosis patient
Pseudomonas aeruginosa [2] = experiment: Antimicrobial activity against Pseudomonas aeruginosa 1A9 tracheal isolates from mechanically ventilated tuberculosis patient
Pseudomonas aeruginosa [3] = experiment: Antimicrobial activity against Pseudomonas aeruginosa 1B9 tracheal isolates from mechanically ventilated tuberculosis patient
Pseudomonas aeruginosa [4] = experiment: Antimicrobial activity against Pseudomonas aeruginosa 2C1 tracheal isolates from mechanically ventilated tuberculosis patient
Pseudomonas aeruginosa [5] = experiment: Antimicrobial activity against Pseudomonas aeruginosa 2A2 tracheal isolates from mechanically ventilated tuberculosis patient
Pseudomonas aeruginosa [6] = experiment: Antimicrobial activity against Pseudomonas aeruginosa 2C2 tracheal isolates from mechanically ventilated tuberculosis patient
Pseudomonas aeruginosa [7] = experiment: Antimicrobial activity against Pseudomonas aeruginosa 2A3 tracheal isolates from mechanically ventilated tuberculosis patient
Pseudomonas aeruginosa [8] = experiment: Antimicrobial activity against Pseudomonas aeruginosa 2A5 tracheal isolates from mechanically ventilated tuberculosis patient
Pseudomonas aeruginosa [9] = experiment: Antimicrobial activity against Pseudomonas aeruginosa 2B5 tracheal isolates from mechanically ventilated tuberculosis patient
Pseudomonas aeruginosa [10] = experiment: Antimicrobial activity against Pseudomonas aeruginosa 2A6 tracheal isolates from mechanically ventilated tuberculosis patient
Pseudomonas aeruginosa [11] = experiment: Antimicrobial activity against Pseudomonas aeruginosa 2F6 tracheal isolates from mechanically ventilated tuberculosis patient
Pseudomonas aeruginosa [12] = experiment: Antimicrobial activity against Pseudomonas aeruginosa 2A7 tracheal isolates from mechanically ventilated tuberculosis patient
Pseudomonas aeruginosa [13] = experiment: Antimicrobial activity against Pseudomonas aeruginosa 2A9 tracheal isolates from mechanically ventilated tuberculosis patient
Pseudomonas aeruginosa [14] = experiment: Antimicrobial activity against Pseudomonas aeruginosa 3B1 tracheal isolates from mechanically ventilated tuberculosis patient
Pseudomonas aeruginosa [15] = experiment: Antimicrobial activity against Pseudomonas aeruginosa 65.68-1 tracheal isolates from mechanically ventilated tuberculosis patient
Pseudomonas aeruginosa [16] = experiment: Antimicrobial activity against Pseudomonas aeruginosa 65.68-2 tracheal isolates from mechanically ventilated tuberculosis patient
Pseudomonas aeruginosa [17] = experiment: Antimicrobial activity against Pseudomonas aeruginosa 65.68-3 tracheal isolates from mechanically ventilated tuberculosis patient
Pseudomonas aeruginosa [18] = experiment: Antimicrobial activity against Pseudomonas aeruginosa 65.68-4 tracheal isolates from mechanically ventilated tuberculosis patient
Pseudomonas aeruginosa [19] = experiment: Antimicrobial activity against Pseudomonas aeruginosa P21.21 tracheal isolates from mechanically ventilated tuberculosis patient
Pseudomonas aeruginosa [20] = experiment: Antimicrobial activity against Pseudomonas aeruginosa 65.18-1 tracheal isolates from mechanically ventilated tuberculosis patient
Pseudomonas aeruginosa [21] = experiment: Antimicrobial activity against Pseudomonas aeruginosa 65.18-2 tracheal isolates from mechanically ventilated tuberculosis patient
Pseudomonas aeruginosa [22] = experiment: Antimicrobial activity against Pseudomonas aeruginosa 65.18-3 tracheal isolates from mechanically ventilated tuberculosis patient
Pseudomonas aeruginosa [23] = experiment: Antimicrobial activity against Pseudomonas aeruginosa 65.18-4 tracheal isolates from mechanically ventilated tuberculosis patient
Pseudomonas aeruginosa [24] = experiment: Antimicrobial activity against Pseudomonas aeruginosa P21.23 tracheal isolates from mechanically ventilated tuberculosis patient
Pseudomonas aeruginosa [25] = experiment: Antimicrobial activity against Pseudomonas aeruginosa IA5 tracheal isolates from mechanically ventilated tuberculosis patient
Pseudomonas aeruginosa [26] = experiment: Antimicrobial activity against Pseudomonas aeruginosa IC7 tracheal isolates from mechanically ventilated tuberculosis patient
Pseudomonas aeruginosa [27] = experiment: Antimicrobial activity against Pseudomonas aeruginosa 65.33-1 tracheal isolates from mechanically ventilated tuberculosis patient
Pseudomonas aeruginosa [28] = experiment: Antimicrobial activity against Pseudomonas aeruginosa 65.33-4 tracheal isolates from mechanically ventilated tuberculosis patient
Pseudomonas aeruginosa [29] = experiment: Antimicrobial activity against Pseudomonas aeruginosa 65.38-1 tracheal isolates from mechanically ventilated tuberculosis patient
Pseudomonas aeruginosa [30] = experiment: Antimicrobial activity against Pseudomonas aeruginosa 65.38-4 tracheal isolates from mechanically ventilated tuberculosis patient
Pseudomonas aeruginosa [31] = experiment: Antimicrobial activity against Pseudomonas aeruginosa 1C9 tracheal isolates from mechanically ventilated tuberculosis patient
Pseudomonas aeruginosa [32] = experiment: Antimicrobial activity against Pseudomonas aeruginosa 2A1 tracheal isolates from mechanically ventilated tuberculosis patient
Pseudomonas aeruginosa [33] = experiment: Antimicrobial activity against Pseudomonas aeruginosa 15H5 tracheal isolates from mechanically ventilated chronic respiratory insufficiency patient
Pseudomonas aeruginosa [34] = experiment: Antimicrobial activity against Pseudomonas aeruginosa 65.33-2 tracheal isolates from mechanically ventilated tuberculosis patient
Pseudomonas aeruginosa [35] = experiment: Antimicrobial activity against Pseudomonas aeruginosa 65.33-3 tracheal isolates from mechanically ventilated tuberculosis patient
Pseudomonas aeruginosa [36] = experiment: Antimicrobial activity against Pseudomonas aeruginosa 65.36-1 tracheal isolates from mechanically ventilated tuberculosis patient
Pseudomonas aeruginosa [37] = experiment: Antimicrobial activity against Pseudomonas aeruginosa 65.36-2 tracheal isolates from mechanically ventilated tuberculosis patient
Pseudomonas aeruginosa [38] = experiment: Antimicrobial activity against Pseudomonas aeruginosa 65.36-3 tracheal isolates from mechanically ventilated tuberculosis patient
Pseudomonas aeruginosa [39] = experiment: Antimicrobial activity against Pseudomonas aeruginosa 65.36-4 tracheal isolates from mechanically ventilated tuberculosis patient
Pseudomonas aeruginosa [40] = experiment: Antimicrobial activity against Pseudomonas aeruginosa 65.38-2 tracheal isolates from mechanically ventilated tuberculosis patient
Pseudomonas aeruginosa [41] = experiment: Antimicrobial activity against Pseudomonas aeruginosa ID7 tracheal isolates from mechanically ventilated tuberculosis patient

| Structure (SMILES) | Activity (Pseudomonas aeruginosa [1]) | Activity (Pseudomonas aeruginosa [2]) | Activity (Pseudomonas aeruginosa [3]) | Activity (Pseudomonas aeruginosa [4]) | Activity (Pseudomonas aeruginosa [5]) | Activity (Pseudomonas aeruginosa [6]) | Activity (Pseudomonas aeruginosa [7]) | Activity (Pseudomonas aeruginosa [8]) | Activity (Pseudomonas aeruginosa [10]) | Activity (Pseudomonas aeruginosa [11]) | Activity (Pseudomonas aeruginosa [12]) | Activity (Pseudomonas aeruginosa [13]) | Activity (Pseudomonas aeruginosa [14]) | Activity (Pseudomonas aeruginosa [15]) | Activity (Pseudomonas aeruginosa [16]) | Activity (Pseudomonas aeruginosa [19]) | Activity (Pseudomonas aeruginosa [22]) | Activity (Pseudomonas aeruginosa [24]) | Activity (Pseudomonas aeruginosa [25]) | Activity (Pseudomonas aeruginosa [26]) | other results |
| --- | --- | --- | --- | --- | --- | --- | --- | --- | --- | --- | --- | --- | --- | --- | --- | --- | --- | --- | --- | --- | --- |
| C[C@H]1[C@H](NC(=O)/C(=N\OC(C)(C)C(=O)O)c2csc(N)n2)C(=O)N1S(=O)(=O)O | inactive | inactive | inactive | inactive | Active | Active | Active | Active | inactive | inactive | inactive | inactive | Active | Active | Active | Active | Active | Active | Active | Active | Activity (Pseudomonas aeruginosa [9]): Active; Activity (Pseudomonas aeruginosa [17]): Active; Activity (Pseudomonas aeruginosa [18]): Active; Activity (Pseudomonas aeruginosa [20]): Active; Activity (Pseudomonas aeruginosa [21]): Active; Activity (Pseudomonas aeruginosa [23]): Active; Activity (Pseudomonas aeruginosa [27]): Active; Activity (Pseudomonas aeruginosa [28]): Active; Activity (Pseudomonas aeruginosa [29]): inactive |
| NC[C@H]1O[C@H](O[C@H]2[C@H](O)[C@@H](O[C@H]3O[C@H](CO)[C@@H](O)[C@H](N)[C@H]3O)[C@H](N)C[C@@H]2N)[C@H](N)C[C@@H]1O | Active | Active | – | Active | Active | Active | Active | Active | Active | Active | Active | Active | Active | Active | Active | Active | Active | Active | Active | Active | Activity (Pseudomonas aeruginosa [30]): Active; Activity (Pseudomonas aeruginosa [31]): Active; Activity (Pseudomonas aeruginosa [32]): Active; Activity (Pseudomonas aeruginosa [9]): Active; Activity (Pseudomonas aeruginosa [17]): Active; Activity (Pseudomonas aeruginosa [18]): Active; Activity (Pseudomonas aeruginosa [33]): Active; Activity (Pseudomonas aeruginosa [20]): Active; Activity (Pseudomonas aeruginosa [21]): Active; Activity (Pseudomonas aeruginosa [23]): Active; Activity (Pseudomonas aeruginosa [27]): Active; Activity (Pseudomonas aeruginosa [34]): Active; Activity (Pseudomonas aeruginosa [35]): Active; Activity (Pseudomonas aeruginosa [28]): Active; Activity (Pseudomonas aeruginosa [36]): Active; Activity (Pseudomonas aeruginosa [37]): Active; Activity (Pseudomonas aeruginosa [38]): Active; Activity (Pseudomonas aeruginosa [39]): Active; Activity (Pseudomonas aeruginosa [40]): Active |
| CCN[C@@H]1C[C@H](N)[C@@H](O[C@H]2OC(CN)=CC[C@H]2N)[C@H](O)[C@H]1O[C@H]1OC[C@](C)(O)[C@H](NC)[C@H]1O | inactive | Active | inactive | inactive | Active | Active | Active | Active | – | inactive | inactive | inactive | Active | Active | inactive | Active | Active | Active | Active | Active | Activity (Pseudomonas aeruginosa [30]): inactive; Activity (Pseudomonas aeruginosa [32]): Active; Activity (Pseudomonas aeruginosa [21]): Active; Activity (Pseudomonas aeruginosa [23]): Active; Activity (Pseudomonas aeruginosa [27]): Active; Activity (Pseudomonas aeruginosa [39]): inactive; Activity (Pseudomonas aeruginosa [29]): inactive; Activity (Pseudomonas aeruginosa [40]): inactive |
| C[C@@H](O)[C@H]1C(=O)N2C(C(=O)O)=C(S[C@@H]3CN[C@H](C(=O)N(C)C)C3)[C@H](C)[C@H]12 | inactive | inactive | inactive | inactive | inactive | – | Active | Active | inactive | inactive | inactive | inactive | Active | inactive | inactive | Active | Active | Active | Active | Active | Activity (Pseudomonas aeruginosa [30]): inactive; Activity (Pseudomonas aeruginosa [32]): inactive; Activity (Pseudomonas aeruginosa [17]): inactive; Activity (Pseudomonas aeruginosa [18]): inactive; Activity (Pseudomonas aeruginosa [20]): Active; Activity (Pseudomonas aeruginosa [34]): inactive; Activity (Pseudomonas aeruginosa [35]): inactive; Activity (Pseudomonas aeruginosa [38]): inactive; Activity (Pseudomonas aeruginosa [39]): inactive; Activity (Pseudomonas aeruginosa [29]): inactive; Activity (Pseudomonas aeruginosa [40]): inactive |
| CCN1CCN(C(=O)N[C@@H](C(=O)N[C@@H]2C(=O)N3[C@@H]2SC(C)(C)[C@@H]3C(=O)O)c2ccccc2)C(=O)C1=O | inactive | inactive | inactive | inactive | Active | Active | Active | Active | inactive | inactive | inactive | inactive | Active | Active | Active | Active | Active | Active | Active | Active | Activity (Pseudomonas aeruginosa [30]): Active; Activity (Pseudomonas aeruginosa [32]): inactive; Activity (Pseudomonas aeruginosa [9]): Active; Activity (Pseudomonas aeruginosa [17]): Active; Activity (Pseudomonas aeruginosa [18]): Active; Activity (Pseudomonas aeruginosa [20]): Active; Activity (Pseudomonas aeruginosa [21]): Active; Activity (Pseudomonas aeruginosa [23]): Active; Activity (Pseudomonas aeruginosa [41]): Active; Activity (Pseudomonas aeruginosa [27]): Active; Activity (Pseudomonas aeruginosa [34]): Active; Activity (Pseudomonas aeruginosa [35]): inactive; Activity (Pseudomonas aeruginosa [28]): Active; Activity (Pseudomonas aeruginosa [36]): Active; Activity (Pseudomonas aeruginosa [37]): Active; Activity (Pseudomonas aeruginosa [38]): Active; Activity (Pseudomonas aeruginosa [39]): inactive; Activity (Pseudomonas aeruginosa [29]): inactive; Activity (Pseudomonas aeruginosa [40]): inactive |
